Data taken from paper PMC11062899, “De novo development of small cyclic peptides that are orally bioavailable” (Nature Chemical Biology, 2023).

Molecular target: human α-thrombin (Homo sapiens, UniProt P00734)
Assay: Sub-library screen for active and permeable cyclic peptides (PAMPA plus thrombin inhibition)
Type: biochemical
Details: crude, slopes normalized to DMSO; for Residual thrombin activity: Top sample: PAMPA acceptor well after 14 h, 5 μM donor; for Residual thrombin activity: Equilibrated sample: donor sample diluted to theoretical equilibrium (1 μM in assay)
Method: Linear dithiol peptides were synthesized in fritted 5-ml polypropylene syringes on a MultiPep RSi parallel peptide synthesizer (Intavis) by standard Fmoc-based solid-phase peptide synthesis on cysteamine 2-chlorotrityl resin (Sigma-Aldrich, 8.56000, 1.63 mmol g^−1 loading, 25 μmol scale) as described above with small changes. Amino acids (65 μmol, 2.6 eq.) were activated with HATU (63 μmol, 2.5 eq.) and NMM (145 μmol, 5.8 eq.) in 280 μl of DMF and 5 μl of NMP and let to react with the resin (25 μmol, 1 eq.) for 45 min. Couplings were performed twice for each amino acid. Resin was washed once with 800 μl of DMF, and unreacted amines were capped with 5% acetic anhydride and 6% 2,6-lutidine in 400 μl of DMF for 5 min. The resin was washed six times with 600 μl of DMF, and Fmoc protecting groups were removed by incubating the resin twice with 450 μl of a 20% piperidine solution in DMF for 5 min. The resin was washed six times with 600 μl of DMF before proceeding to the next coupling cycle. After completing the last coupling cycle, the resin was washed six times with […] of DCM. Peptide cleavage and ether precipitation were carried out as described above. After quantification with Ellman’s reagent, 1 μmol of each peptide was transferred in seven replicates to new Nunc 96-well DeepWell polypropylene plates and lyophilized. Peptides were cyclized as described above to afford 20 mM cyclic peptide stock solutions in DMSO containing 160 mM HEPES sodium salt. The amine on cyclic peptides was acylated with 5-chlorothiophene-2-carboxylic acid as follows. A 160 mM solution in 5-chlorothiophene-2-carboxylic acid was prepared in DMSO containing 160 mM HEPES sodium salt, and the acid was activated by mixing in equal volumes with a 160 mM HSTU solution in DMSO. Then, 10 μl of the activated carboxylic acid solutions and the cyclic peptide stocks were placed in Echo Qualified 384-well Low Dead Volume microplates (Labcyte), and 400 nl of cyclic peptide and 400 nl of HSTU-activated 5-chlorothiophene-2-carboxylic acid were transferred combinatorially to 384-well microplates (Greiner, 781076) using the Echo 650 acoustic liquid handler (Labcyte). Plates were centrifuged at 2,000 g for 2 min, and the reaction was allowed to proceed at room temperature for 8 h before addition of 39.2 μl of DMSO with a CERTUS FLEX liquid dispenser (Gyger). A volume of 25 μl of the resulting DMSO solutions was diluted with PBS buffer at pH 7.4 containing 5% DMSO in Nunc 96-well DeepWell polypropylene plates to afford 5 μM solutions of the acylated peptides.
The PAMPA plates were covered with a lid to avoid evaporation and incubated for 14 h at room temperature. Additionally, a diluted donor sample was prepared at the concentration representing theoretical maximum permeability (3 μM). Thereby, 30 μl of the donor sample before incubation was diluted with 20 μl of PBS buffer at pH 7.4 containing 5% DMSO. Volumes of 16 μl of each acceptor well and the diluted donor samples were transferred to a 384-well microplate (Greiner, 781076), and thrombin activity was measured as follows. Human α-thrombin (16 μl, 6 nM, Molecular Innovations) in assay buffer was dispensed into each well using a CERTUS FLEX liquid dispenser (Gyger), and plates were incubated at room temperature for 10 min. Then, 16 μl of a 150 μM fluorogenic thrombin substrate solution (Z-Gly-Gly-Arg-AMC, Bachem) in assay buffer containing 1% DMSO was added to each well, and thrombin inhibition was determined by measuring the fluorescent gain over time. Fluorescence intensity was measured on a Tecan Infinite M200 Pro microplate reader for 30 min at 25 °C with a fluorescent readout every 3 min (excitation: 360 nm, emission: 465 nm). Protease inhibition was calculated by comparing the enzymatic activity to a control without cyclic peptide.

Structure (SMILES)	Residual thrombin activity: Top sample	Residual thrombin activity: Equilibrated sample
N#Cc1ccc(C[C@@H]2NC(=O)[C@@H](NC(=O)c3ccc(Cl)s3)CSCc3cccc(n3)CSCCNC(=O)C[C@H]3CCCN3C2=O)cc1 [C1-X35-L1]	91.5	92.1
N#Cc1ccc(C[C@@H]2NC(=O)[C@@H](NC(=O)c3ccc(Cl)s3)CSCCS(=O)(=O)CCSCCNC(=O)C[C@H]3CCCN3C2=O)cc1 [C1-X35-L2]	95.6	96.6
N#Cc1ccc(C[C@@H]2NC(=O)[C@@H](NC(=O)c3ccc(Cl)s3)CSCc3ccc(cc3)CSCCNC(=O)C[C@H]3CCCN3C2=O)cc1 [C1-X35-L3]	94.1	100.0
N#Cc1ccc(C[C@@H]2NC(=O)[C@@H](NC(=O)c3ccc(Cl)s3)CSC/C=C/CSCCNC(=O)C[C@H]3CCCN3C2=O)cc1 [C1-X35-L4]	93.4	96.9
N#Cc1ccc(C[C@@H]2NC(=O)[C@@H](NC(=O)c3ccc(Cl)s3)CSCc3cccc(c3)CSCCNC(=O)C[C@H]3CCCN3C2=O)cc1 [C1-X35-L5]	102.4	97.2
N#Cc1ccc(C[C@@H]2NC(=O)[C@@H](NC(=O)c3ccc(Cl)s3)CSCc3ccccc3CSCCNC(=O)C[C@H]3CCCN3C2=O)cc1 [C1-X35-L6]	90.5	92.5
N#Cc1ccc(C[C@@H]2NC(=O)[C@@H](NC(=O)c3ccc(Cl)s3)CSCC(=O)CSCCNC(=O)C[C@H]3CCCN3C2=O)cc1 [C1-X35-L7]	96.3	100.4
O=C1C[C@H]2CCCN2C(=O)[C@H](Cc2ccc(C(F)(F)F)cc2)NC(=O)[C@@H](NC(=O)c2ccc(Cl)s2)CSCc2cccc(n2)CSCCN1 [C1-X36-L1]	93.6	98.9
O=C1C[C@H]2CCCN2C(=O)[C@H](Cc2ccc(C(F)(F)F)cc2)NC(=O)[C@@H](NC(=O)c2ccc(Cl)s2)CSCCS(=O)(=O)CCSCCN1 [C1-X36-L2]	99.0	102.5
O=C1C[C@H]2CCCN2C(=O)[C@H](Cc2ccc(C(F)(F)F)cc2)NC(=O)[C@@H](NC(=O)c2ccc(Cl)s2)CSCc2ccc(cc2)CSCCN1 [C1-X36-L3]	95.8	94.6
O=C1C[C@H]2CCCN2C(=O)[C@H](Cc2ccc(C(F)(F)F)cc2)NC(=O)[C@@H](NC(=O)c2ccc(Cl)s2)CSC/C=C/CSCCN1 [C1-X36-L4]	96.8	92.7
O=C1C[C@H]2CCCN2C(=O)[C@H](Cc2ccc(C(F)(F)F)cc2)NC(=O)[C@@H](NC(=O)c2ccc(Cl)s2)CSCc2cccc(c2)CSCCN1 [C1-X36-L5]	101.6	104.5
O=C1C[C@H]2CCCN2C(=O)[C@H](Cc2ccc(C(F)(F)F)cc2)NC(=O)[C@@H](NC(=O)c2ccc(Cl)s2)CSCc2ccccc2CSCCN1 [C1-X36-L6]	91.2	94.8
O=C1CSCCNC(=O)C[C@H]2CCCN2C(=O)[C@H](Cc2ccc(C(F)(F)F)cc2)NC(=O)[C@@H](NC(=O)c2ccc(Cl)s2)CSC1 [C1-X36-L7]	100.3	99.5
Cc1cccc(C[C@@H]2NC(=O)[C@@H](NC(=O)c3ccc(Cl)s3)CSCc3cccc(n3)CSCCNC(=O)C[C@H]3CCCN3C2=O)c1 [C1-X37-L1]	86.5	84.1
Cc1cccc(C[C@@H]2NC(=O)[C@@H](NC(=O)c3ccc(Cl)s3)CSCCS(=O)(=O)CCSCCNC(=O)C[C@H]3CCCN3C2=O)c1 [C1-X37-L2]	93.0	57.2
